# Laboratory results taken from ChEMBL document CHEMBL1132879, “High potent and selective arylpiperazine derivatives as ligands for the 5-HT1A receptor” (Bioorg Med Chem Lett, 2000).
# Target: Serotonin 1a (5-HT1a) receptor/Adrenergic receptor alpha-1 (Rattus norvegicus) (UniProt P15823+P23944+P43140+P19327)
# Assay: Selectivity for 5-HT1A serotonin over alpha-1-adrenergic receptors
# Type: protein assay
row,Selectivity,SMILES
1,115,CCc1cc2c(=O)n(N)c(SCCCN3CCN(c4ccccc4OC)CC3)nc2s1
2,73,Nn1c(SCCCN2CCN(c3ncccn3)CC2)nc2sccc2c1=O
3,4.4,COc1ccccc1N1CCN(CCCSc2nc(N)c3c(C)c(C)sc3n2)CC1
4,28,COc1ccccc1N1CCN(CCCSc2nc3sc4c(c3c(=O)n2N)CCC4)CC1
5,14,CCCc1cc2c(=O)n(N)c(SCCCN3CCN(c4ccccc4OC)CC3)nc2s1
6,3.8,COc1ccccc1N1CCN(CCCSc2nc3sccc3c(=O)n2N)CC1
7,207,CCc1cc2c(=O)n(N)c(SCCCN3CCN(c4ncccn4)CC3)nc2s1
8,39,COc1ccccc1N1CCN(CCCSc2nc3sc(C)c(C)c3c(=O)n2N)CC1
9,13,Nn1c(SCCCN2CCN(c3ccccc3[N+](=O)[O-])CC2)nc2sccc2c1=O
10,3,CCOc1ccccc1-c1nnc(SCCCN2CCN(c3ccccc3[N+](=O)[O-])CC2)s1
11,20,CCc1cc2c(=O)n(N)c(SCCCN3CCN(c4ccccc4[N+](=O)[O-])CC3)nc2s1
12,53,Cc1sc2nc(SCCCN3CCN(c4ccccc4[N+](=O)[O-])CC3)n(N)c(=O)c2c1C
13,117,Cc1sc2nc(SCCCN3CCN(c4ncccn4)CC3)n(N)c(=O)c2c1C
14,4.6,CCOc1ccccc1-c1nnc(SCCCN2CCN(c3ccccc3OC)CC2)s1

# Target: T1, Adrenergic receptor alpha-1 (Rattus norvegicus, UniProt P15823+P23944+P43140)
# T1 sequence (P15823 whole entry): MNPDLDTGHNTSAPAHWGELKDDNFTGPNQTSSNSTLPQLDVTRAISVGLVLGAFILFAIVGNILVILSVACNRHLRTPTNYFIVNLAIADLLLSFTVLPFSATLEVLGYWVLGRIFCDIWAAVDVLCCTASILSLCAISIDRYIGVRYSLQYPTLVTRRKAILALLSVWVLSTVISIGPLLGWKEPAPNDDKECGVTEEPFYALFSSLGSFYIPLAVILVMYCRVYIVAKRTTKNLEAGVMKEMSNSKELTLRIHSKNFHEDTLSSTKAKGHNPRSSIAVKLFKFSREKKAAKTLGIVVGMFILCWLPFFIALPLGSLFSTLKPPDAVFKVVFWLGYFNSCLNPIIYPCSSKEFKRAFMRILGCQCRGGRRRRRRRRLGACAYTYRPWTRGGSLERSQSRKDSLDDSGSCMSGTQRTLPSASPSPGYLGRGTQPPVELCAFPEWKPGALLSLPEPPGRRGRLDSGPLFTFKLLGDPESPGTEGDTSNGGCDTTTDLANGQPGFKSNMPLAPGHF
# T1 sequence (P23944 whole entry): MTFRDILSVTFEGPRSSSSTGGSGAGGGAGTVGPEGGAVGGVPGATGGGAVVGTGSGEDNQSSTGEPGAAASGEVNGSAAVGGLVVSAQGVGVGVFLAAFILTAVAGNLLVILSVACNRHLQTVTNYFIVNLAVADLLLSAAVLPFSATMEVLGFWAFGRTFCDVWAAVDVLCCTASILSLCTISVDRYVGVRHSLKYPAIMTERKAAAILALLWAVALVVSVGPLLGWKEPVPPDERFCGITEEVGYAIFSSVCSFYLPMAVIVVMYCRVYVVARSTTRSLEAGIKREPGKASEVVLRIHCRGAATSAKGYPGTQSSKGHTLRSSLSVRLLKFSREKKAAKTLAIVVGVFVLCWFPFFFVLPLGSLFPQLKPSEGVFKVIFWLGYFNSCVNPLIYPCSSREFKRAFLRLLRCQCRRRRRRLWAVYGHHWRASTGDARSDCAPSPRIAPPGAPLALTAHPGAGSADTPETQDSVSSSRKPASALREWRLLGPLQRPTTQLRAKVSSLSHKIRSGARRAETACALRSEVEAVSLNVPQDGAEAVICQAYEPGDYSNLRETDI
# T1 sequence (P43140 whole entry): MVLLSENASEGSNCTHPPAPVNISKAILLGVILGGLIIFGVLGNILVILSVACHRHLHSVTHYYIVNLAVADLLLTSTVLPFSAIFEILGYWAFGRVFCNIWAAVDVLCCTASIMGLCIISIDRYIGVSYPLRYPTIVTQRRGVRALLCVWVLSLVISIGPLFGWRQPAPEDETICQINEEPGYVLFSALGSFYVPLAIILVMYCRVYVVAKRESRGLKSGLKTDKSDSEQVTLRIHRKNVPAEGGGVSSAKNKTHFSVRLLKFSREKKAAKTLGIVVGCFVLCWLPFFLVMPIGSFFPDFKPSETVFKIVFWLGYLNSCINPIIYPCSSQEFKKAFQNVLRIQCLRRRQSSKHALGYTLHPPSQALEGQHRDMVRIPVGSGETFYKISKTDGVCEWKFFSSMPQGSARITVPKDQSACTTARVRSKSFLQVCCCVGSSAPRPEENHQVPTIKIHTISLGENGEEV
# Assay: Displacement of [3H]prazosin from Alpha-1 adrenergic receptor of rat cortex membranes
# Type: cell membranes, Membrane
row,Ki [nM],SMILES
1,21.96,CCc1cc2c(=O)n(N)c(SCCCN3CCN(c4ccccc4OC)CC3)nc2s1
2,366.31,Nn1c(SCCCN2CCN(c3ncccn3)CC2)nc2sccc2c1=O
3,10.8,COc1ccccc1N1CCN(CCCSc2nc(N)c3c(C)c(C)sc3n2)CC1
4,7.39,COc1ccccc1N1CCN(CCCSc2nc3sc4c(c3c(=O)n2N)CCC4)CC1
5,19.65,CCCc1cc2c(=O)n(N)c(SCCCN3CCN(c4ccccc4OC)CC3)nc2s1
6,2.48,COc1ccccc1N1CCN(CCCSc2nc3sccc3c(=O)n2N)CC1
7,1946,CCc1cc2c(=O)n(N)c(SCCCN3CCN(c4ncccn4)CC3)nc2s1
8,6.26,COc1ccccc1N1CCN(CCCSc2nc3sc(C)c(C)c3c(=O)n2N)CC1
9,39.87,Nn1c(SCCCN2CCN(c3ccccc3[N+](=O)[O-])CC2)nc2sccc2c1=O
10,437,CCOc1ccccc1-c1nnc(SCCCN2CCN(c3ccccc3[N+](=O)[O-])CC2)s1
11,194.8,CCc1cc2c(=O)n(N)c(SCCCN3CCN(c4ccccc4[N+](=O)[O-])CC3)nc2s1
12,123,Cc1sc2nc(SCCCN3CCN(c4ccccc4[N+](=O)[O-])CC3)n(N)c(=O)c2c1C
13,434,Cc1sc2nc(SCCCN3CCN(c4ncccn4)CC3)n(N)c(=O)c2c1C
14,31.5,CCOc1ccccc1-c1nnc(SCCCN2CCN(c3ccccc3OC)CC2)s1

# Target: T2, 5-hydroxytryptamine receptor 1A (Rattus norvegicus, UniProt P19327)
# T2 sequence (P19327 whole entry): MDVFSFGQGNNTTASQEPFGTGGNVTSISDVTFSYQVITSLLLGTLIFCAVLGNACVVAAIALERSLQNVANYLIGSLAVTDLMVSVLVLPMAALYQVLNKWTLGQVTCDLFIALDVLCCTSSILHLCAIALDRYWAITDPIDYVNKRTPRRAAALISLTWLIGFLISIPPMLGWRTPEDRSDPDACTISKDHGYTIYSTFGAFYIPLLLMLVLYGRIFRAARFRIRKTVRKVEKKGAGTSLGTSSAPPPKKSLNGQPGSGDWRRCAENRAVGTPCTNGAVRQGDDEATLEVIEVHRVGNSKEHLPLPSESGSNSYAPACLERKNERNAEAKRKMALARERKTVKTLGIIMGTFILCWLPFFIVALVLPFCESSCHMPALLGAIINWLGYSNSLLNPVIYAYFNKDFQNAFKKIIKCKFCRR
# Assay: Displacement of [3H]8-OH-DPAT from 5-hydroxytryptamine 1A receptor of rat hippocampus membranes
# Type: cell membranes, Membrane
row,Ki [nM],SMILES
1,0.19,CCc1cc2c(=O)n(N)c(SCCCN3CCN(c4ccccc4OC)CC3)nc2s1
2,5.06,Nn1c(SCCCN2CCN(c3ncccn3)CC2)nc2sccc2c1=O
3,2.45,COc1ccccc1N1CCN(CCCSc2nc(N)c3c(C)c(C)sc3n2)CC1
4,0.26,COc1ccccc1N1CCN(CCCSc2nc3sc4c(c3c(=O)n2N)CCC4)CC1
5,1.4,CCCc1cc2c(=O)n(N)c(SCCCN3CCN(c4ccccc4OC)CC3)nc2s1
6,0.65,COc1ccccc1N1CCN(CCCSc2nc3sccc3c(=O)n2N)CC1
7,9.4,CCc1cc2c(=O)n(N)c(SCCCN3CCN(c4ncccn4)CC3)nc2s1
8,0.16,COc1ccccc1N1CCN(CCCSc2nc3sc(C)c(C)c3c(=O)n2N)CC1
9,3,Nn1c(SCCCN2CCN(c3ccccc3[N+](=O)[O-])CC2)nc2sccc2c1=O
10,135,CCOc1ccccc1-c1nnc(SCCCN2CCN(c3ccccc3[N+](=O)[O-])CC2)s1
11,9.69,CCc1cc2c(=O)n(N)c(SCCCN3CCN(c4ccccc4[N+](=O)[O-])CC3)nc2s1
12,1.46,Cc1sc2nc(SCCCN3CCN(c4ccccc4[N+](=O)[O-])CC3)n(N)c(=O)c2c1C
13,3.72,Cc1sc2nc(SCCCN3CCN(c4ncccn4)CC3)n(N)c(=O)c2c1C
14,6.84,CCOc1ccccc1-c1nnc(SCCCN2CCN(c3ccccc3OC)CC2)s1
